Results published in patent publication US20240124418A1 (BioTheryX, Inc., priority 2020, published 2024).

Test system: TNF-α
Assay: Cell-based TNF-α inhibition assay (LPS-induced PBMCs, Meso Scale)
Settings: PBMC, PBMCs pretreated 1 h, LPS 100 ng/mL 18-24 h, percentage of stimulated DMSO control; for inhibition at 0.1 µM: compound concentration 0.1 μM; for inhibition at 1 µM: compound concentration 1 μM
Experimental: Example B1. Cell-Based TNF-α Inhibition Assay
Frozen primary blood mononuclear cells (PBMCs) were quick thawed, washed once with RPMI 1640 media supplemented with 10% fetal bovine serum, 1% penicillin, and 1% streptomycin, and plated in a 96 well plate at 200,000 cells per well. The cells were pretreated with DMSO only as a control or a compound for 1 h, and then induced with LPS (lipopolysaccharide) (100 ng/mL) for 18-24 h. The supernatant was analyzed for TNF-α using the Meso Scale assay. Compound activity was determined as a percentage of the stimulated DMSO control. The results are summarized in Table 1, where A represents a percent inhibition value ≥60%; B represents a percent inhibition value <60% and ≥40%; C represents a percent inhibition value <40% and ≥20%; and D represents a single percent inhibition value <20%.

Row | Compound | inhibition at 0.1 µM | inhibition at 1 µM
1 | CCOc1cc([C@@H](CS(C)(=O)=O)N2C(=O)c3cc(C#CCCCCCN4CCC(c5cc(F)cc6c5CN(C5CCC(=O)NC5=O)C6=O)CC4)cc(NC(C)=O)c3C2=O)ccc1OC (stereo partly drawn) [Compound A2, N-(6-(7-(4-(2-(2,6-Dioxopiperidin-3-yl)-6-fluoro-1-oxoisoindolin-4-yl)-piperidin-1-yl)hept-1-yn-1-yl)-2-((S)-1-(3-ethoxy-4-methoxyphenyl)-2-(methylsulfonyl)ethyl)-1,3-dioxoisoindolin-4-yl)acetamide] | ≥ 60% | –
2 | CCOc1cc([C@@H](CS(C)(=O)=O)N2C(=O)c3cc(CCCN4CCC(c5cc(F)cc6c5CN(C5CCC(=O)NC5=O)C6=O)CC4)cc(NC(C)=O)c3C2=O)ccc1OC (stereo partly drawn) [Compound A5, N-(6-(3-(4-(2-(2,6-Dioxopiperidin-3-yl)-6-fluoro-1-oxoisoindolin-4-yl)piperidin-1-yl)propyl)-2-((S)-1-(3-ethoxy-4-methoxyphenyl)-2-(methylsulfonyl)ethyl)-1,3-dioxoisoindolin-4-yl)acetamide] | ≥ 60% | –
3 | CCOc1cc([C@@H](CS(C)(=O)=O)N2C(=O)c3cccc(NC(=O)CCCCCCCCNCc4ccc(COc5cccc6c5CN(C5CCC(=O)NC5=O)C6=O)cc4)c3C2=O)ccc1OC (stereo partly drawn) [Compound A16, 9-({[4-({[2-(2,6-Dioxopiperidin-3-yl)-1-oxo-2,3-dihydro-1H-isoindol-4-yl]oxy}-methyl)phenyl]methyl}amino)-N-{2-[(1S)-1-(3-ethoxy-4-methoxyphenyl)-2-methanesulfonylethyl]-1,3-dioxo-2,3-dihydro-1H-isoindol-4-yl}nonanamide] | ≥ 60% | ≥ 60%
4 | CCOc1cc([C@@H](CS(C)(=O)=O)N2C(=O)c3c(CCCCCCCCCCCCN4CCC(c5cc(F)cc6c5CN(C5CCC(=O)NC5=O)C6=O)CC4)ccc(NC(C)=O)c3C2=O)ccc1OC (stereo partly drawn) [Compound A17, N-[7-(12-{4-[2-(2,6-Dioxopiperidin-3-yl)-6-fluoro-1-oxo-2,3-dihydro-1H-isoindol-4-yl]piperidin-1-yl}dodecyl)-2-[(1S)-1-(3-ethoxy-4-methoxyphenyl)-2-methanesulfonylethyl]-1,3-dioxo-2,3-dihydro-1H-isoindol-4-yl]acetamide] | ≥ 60% | ≥ 60%
5 | CCOc1cc([C@@H](CS(C)(=O)=O)N2C(=O)c3c(N)ccc(CCCCCCCCCCCCN4CCC(c5cc(F)cc6c5CN(C5CCC(=O)NC5=O)C6=O)CC4)c3C2=O)ccc1OC (stereo partly drawn) [Compound A18, 4-Amino-7-(12-{4-[2-(2,6-Dioxopiperidin-3-yl)-6-fluoro-1-oxo-2,3-dihydro-1H-isoindol-4-yl]piperidin-1-yl}dodecyl)-2-[(1S)-1-(3-ethoxy-4-methoxyphenyl)-2-methanesulfonylethyl]-2,3-dihydro-1H-isoindole-1,3-dione] | ≥ 60% | ≥ 60%
6 | CCOc1cc([C@@H](CS(C)(=O)=O)N2C(=O)c3cccc(NC(=O)CCCCCCCCn4cc(-c5cc6c(cc5F)C(=O)N(C5CCC(=O)NC5=O)C6)nn4)c3C2=O)ccc1OC (stereo partly drawn) [Compound A23, 9-{4-[2-(2,6-Dioxopiperidin-3-yl)-6-fluoro-1-oxo-2,3-dihydro-1H-isoindol-5-yl]-1H-1,2,3-triazol-1-yl}-N-{2-[(1S)-1-(3-ethoxy-4-methoxyphenyl)-2-methanesulfonylethyl]-1,3-dioxo-2,3-dihydro-1H-isoindol-4-yl}nonanamide] | ≥ 60% | ≥ 60%
7 | CCOc1cc([C@@H](CS(C)(=O)=O)N2C(=O)c3cccc(NC(=O)CCCc4cn(CCN5CCC(c6cc7c(cc6F)C(=O)N(C6CCC(=O)NC6=O)C7)CC5)nn4)c3C2=O)ccc1OC (stereo partly drawn) [Compound A24, 4-[1-(2-{4-[2-(2,6-Dioxopiperidin-3-yl)-6-fluoro-1-oxo-2,3-dihydro-1H-isoindol-5-yl]piperidin-1-yl}ethyl)-1H-1,2,3-triazol-4-yl]-N-{2-[(1S)-1-(3-ethoxy-4-methoxyphenyl)-2-methanesulfonylethyl]-1,3-dioxo-2,3-dihydro-1H-isoindol-4-yl}butanamide] | ≥ 60% | ≥ 60%
8 | CCOc1cc([C@@H](CS(C)(=O)=O)N2C(=O)c3cccc(NCCCCCCCCCN4CCC(c5cc6c(cc5F)C(=O)N(C5CCC(=O)NC5=O)C6)CC4)c3C2=O)ccc1OC (stereo partly drawn) [Compound A25, 4-[(9-{4-[2-(2,6-Dioxopiperidin-3-yl)-6-fluoro-1-oxo-2,3-dihydro-1H-isoindol-5-yl]piperidin-1-yl}nonyl)amino]-2-[(1S)-1-(3-ethoxy-4-methoxyphenyl)-2-methanesulfonylethyl]-2,3-dihydro-1H-isoindole-1,3-dione] | ≥ 60% | ≥ 60%
9 | CCOc1cc([C@@H](CS(C)(=O)=O)N2C(=O)c3cccc(NC(=O)CCCCCCCCN4CCC(c5ccc6c(c5)CN(C5CCC(=O)NC5=O)C6=O)CC4)c3C2=O)ccc1OC (stereo partly drawn) [Compound A26, 9-{4-[2-(2,6-Dioxopiperidin-3-yl)-1-oxo-2,3-dihydro-1H-isoindol-5-yl]piperidin-1-yl}-N-{2-[(1S)-1-(3-ethoxy-4-methoxyphenyl)-2-methanesulfonylethyl]-1,3-dioxo-2,3-dihydro-1H-isoindol-4-yl}nonanamide] | ≥ 60% | ≥ 60%
10 | CCOc1cc([C@@H](CS(C)(=O)=O)N2C(=O)c3cccc(CCCCCCCCCCN4CCC(c5cc6c(cc5F)C(=O)N(C5CCC(=O)NC5=O)C6)CC4)c3C2=O)ccc1OC (stereo partly drawn) [Compound A27, 4-(10-{4-[2-(2,6-Dioxopiperidin-3-yl)-6-fluoro-1-oxo-2,3-dihydro-1H-isoindol-5-yl]piperidin-1-yl}decyl)-2-[(1S)-1-(3-ethoxy-4-methoxyphenyl)-2-methanesulfonylethyl]-2,3-dihydro-1H-isoindole-1,3-dione] | ≥ 60% | ≥ 60%
11 | CCOc1cc([C@@H](CS(C)(=O)=O)N2C(=O)c3cccc(NC(=O)CN4CCN(CCCCN5CCC(c6cc7c(cc6F)C(=O)N(C6CCC(=O)NC6=O)C7)CC5)CC4)c3C2=O)ccc1OC (stereo partly drawn) [Compound A28, 2-[4-(4-{4-[2-(2,6-Dioxopiperidin-3-yl)-6-fluoro-1-oxo-2,3-dihydro-1H-isoindol-5-yl]piperidin-1-yl}butyl)piperazin-1-yl]-N-{2-[(1S)-1-(3-ethoxy-4-methoxyphenyl)-2-methanesulfonylethyl]-1,3-dioxo-2,3-dihydro-1H-isoindol-4-yl}acetamide] | 40 to 60% | ≥ 60%
12 | CCOc1cc([C@@H](CS(C)(=O)=O)N2C(=O)c3cccc(NC(=O)CCCCCN4CCC(N5CCC(c6cc7c(cc6F)C(=O)N(C6CCC(=O)NC6=O)C7)CC5)CC4)c3C2=O)ccc1OC (stereo partly drawn) [Compound A29, 6-{4-[2-(2,6-Dioxopiperidin-3-yl)-6-fluoro-1-oxo-2,3-dihydro-1H-isoindol-5-yl]-[1,4′-bipiperidin]-1′-yl}-N-{2-[(1S)-1-(3-ethoxy-4-methoxyphenyl)-2-methanesulfonylethyl]-1,3-dioxo-2,3-dihydro-1H-isoindol-4-yl}hexanamide] | 40 to 60% | ≥ 60%
13 | CCOc1cc([C@@H](CS(C)(=O)=O)N2C(=O)c3cccc(NC(=O)CCCCCCNCc4ccc(OCc5scc6c5CN([C@H]5CCC(=O)NC5=O)C6=O)cc4)c3C2=O)ccc1OC [Compound A38, 7-((4-((5-((S)-2,6-Dioxopiperidin-3-yl)-4-oxo-5,6-dihydro-4H-thieno[3,4-c]pyrrol-1-yl)methoxy)benzyl)amino)-N-(2-((S)-1-(3-ethoxy-4-methoxyphenyl)-2-(methylsulfonyl)ethyl)-1,3-dioxoisoindolin-4-yl)heptanamide] | ≥ 60% | –
14 | CCOc1cc([C@@H](CS(C)(=O)=O)N2C(=O)c3cccc(NC(=O)CCCCNCc4ccc(OCc5scc6c5CN(C5CCC(=O)NC5=O)C6=O)cc4)c3C2=O)ccc1OC (stereo partly drawn) [Compound A39, 5-((4-((5-(2,6-Dioxopiperidin-3-yl)-4-oxo-5,6-dihydro-4H-thieno[3,4-c]pyrrol-1-yl)methoxy)benzyl)amino)-N-(2-((S)-1-(3-ethoxy-4-methoxyphenyl)-2-(methylsulfonyl)ethyl)-1,3-dioxoisoindolin-4-yl)pentanamide] | ≥ 60% | –
15 | CCOc1cc([C@@H](CS(C)(=O)=O)N2C(=O)c3cccc(NC(=O)CCCN4CCN(CCNCc5ccc(OCc6scc7c6CN(C6CCC(=O)NC6=O)C7=O)cc5)CC4)c3C2=O)ccc1OC (stereo partly drawn) [Compound A45, 4-[4-(2-{[(4-{[5-(2,6-Dioxopiperidin-3-yl)-4-oxo-4H,5H,6H-thieno[3,4-c]pyrrol-1-yl]methoxy}phenyl)methyl]amino}ethyl)piperazin-1-yl]-N-{2-[(1S)-1-(3-ethoxy-4-methoxy-phenyl)-2-methanesulfonylethyl]-1,3-dioxo-2,3-dihydro-1H-isoindol-4-yl}butanamide] | ≥ 60% | ≥ 60%
16 | CCOc1cc([C@@H](CS(C)(=O)=O)N2C(=O)c3cccc(NC(=O)CCCCCCCCCCN(C)Cc4ccc(OCc5scc6c5CN(C5CCC(=O)NC5=O)C6=O)cc4)c3C2=O)ccc1OC (stereo partly drawn) [Compound A46, 11-{[(4-{[5-(2,6-Dioxopiperidin-3-yl)-4-oxo-4H,5H,6H-thieno[3,4-c]pyrrol-1-yl]methoxy}phenyl)methyl](methyl)amino}-N-{2-[(1S)-1-(3-ethoxy-4-methoxyphenyl)-2-methanesulfonylethyl]-1,3-dioxo-2,3-dihydro-1H-isoindol-4-yl}undecanamide] | ≥ 60% | ≥ 60%
17 | CCOc1cc([C@@H](CS(C)(=O)=O)N2C(=O)c3cccc(NC(=O)CCCCCCC4CN(Cc5ccc(OCc6scc7c6CN(C6CCC(=O)NC6=O)C7=O)cc5)CCO4)c3C2=O)ccc1OC (stereo partly drawn) [Compound A47] | ≥ 60% | ≥ 60%
